Test results as given in US20210255193A1, “LYSINE REACTIVE PROBES AND USES THEREOF” (The Scripps Research Institute, priority 2017, published 2021).

Key:
Assay in all cases: direct labeling of recombinantly expressed proteins by gel-based ABPP (WT vs lysine mutant)
Format in all cases: binding
[1] = molecular target: T1, PMVK (Homo sapiens, UniProt Q15126); conditions: PMVK K48, KR mutant; 10 μM probe, 1 h
T1 construct: expressed in transfected cells; host or cells: HEK 293T
T1 sequence (Q15126 1-192): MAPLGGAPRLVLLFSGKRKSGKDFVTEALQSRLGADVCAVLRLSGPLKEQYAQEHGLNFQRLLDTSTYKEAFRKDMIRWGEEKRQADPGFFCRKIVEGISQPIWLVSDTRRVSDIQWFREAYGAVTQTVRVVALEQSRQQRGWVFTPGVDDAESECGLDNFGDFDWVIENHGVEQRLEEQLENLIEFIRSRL
Excerpt: (§1) Subcloning and mutagenesis. Unless noted below, genes were amplified from cDNA prepared from low passage HEK 293T cells using the Ribozol RNA extraction reagent (Amresco) and the iScript Reverse Transcription Supermix kit (Bio-Rad). For the following proteins cDNA clones were used for amplification instead: PFKP (5180268, Dharmacon), HK1 (BC008730, transomic), SIN3A (BC137098, transomic), G6PD (BC000337, transomic) and TGIF1 (BC031268, transomic). Mouse CARM1 in pFLAG-CMV-6c was a kind gift from the Mowen lab (TSRI). NUDT2 was obtained as synthesized gene (IDT). DNA was amplified with custom forward and reverse primers using phusion polymerase (NEB, M0530S), digested with the indicated restriction enzyme and ligated into pFLAG-CMV-6c or pRK5 with the appropriate affinity tag. Lysine mutants were generated using QuikChange site-directed mutagenesis using Phusion® High-Fidelity DNA Polymerase and primers containing the desired mutations and their respective complements. The cloning of TTR and its K35A mutant has been described in Choi et al., “Chemoselective small molecules that covalently modify one lysine in a non-enzyme protein in plasma,” Nat. Chem. Biol. 6, 133-139 (2010). TTR was expressed in E. coli and purified as described. For gel-based experiments 1 μM TTR was added into 1 mg ml^−1 soluble MDA-MB-231 lysate.
(§2) Recombinant expression of proteins by transient transfection. HEK 293T cells were grown to 50% confluency in 10 ml DMEM supplemented with 10% fetal bovine serum (FBS), penicillin, streptomycin and glutamine in 10 cm tissue culture dishes. 3 μg of DNA was diluted in 500 μL DMEM and 30 μL of PEI (MW 40,000, 1 mg ml^−1, Polysciences) were added. The mixture was incubated at room temperature for 30 min and added dropwise to the cells. Cells were grown for 48 h at 37° C. with 5% CO2. Cells were washed with cold PBS, scraped with cold PBS and cell pellets were isolated by centrifugation (1,400 g, 3 min, 4° C.), and stored at −80° C. until use. Cell pellets were resuspended in PBS, lysed by sonication and fractionated (100,000 g, 45 min) to yield soluble and membrane fractions. The soluble fraction was adjusted to a final protein concentration of 1 mg ml^−1 for gel-based ABPP experiments.
(§3) Direct labeling of recombinantly expressed proteins by gel-based ABPP. 50 μL of soluble HEK 293T proteome (1 mg ml^−1) expressing the respective protein (WT or KR mutant) or transfected with an empty vector were treated with 10 μM of the indicated probe for 1 h at room temperature. The samples were analyzed as described in the previous section. For quantification of relative labeling of the different protein variants, the intensity of labeling was determined by quantifying the integrated optical intensity of the bands using ImageLab 5.2.1 software (BioRad).

[2] = molecular target: T2, Sin3a (Homo sapiens, UniProt Q96ST3); conditions: Sin3a K155, KR mutant; 10 μM probe, 1 h
T2 construct: expressed in transfected cells; host or cells: HEK 293T
T2 sequence (Q96ST3 1-400): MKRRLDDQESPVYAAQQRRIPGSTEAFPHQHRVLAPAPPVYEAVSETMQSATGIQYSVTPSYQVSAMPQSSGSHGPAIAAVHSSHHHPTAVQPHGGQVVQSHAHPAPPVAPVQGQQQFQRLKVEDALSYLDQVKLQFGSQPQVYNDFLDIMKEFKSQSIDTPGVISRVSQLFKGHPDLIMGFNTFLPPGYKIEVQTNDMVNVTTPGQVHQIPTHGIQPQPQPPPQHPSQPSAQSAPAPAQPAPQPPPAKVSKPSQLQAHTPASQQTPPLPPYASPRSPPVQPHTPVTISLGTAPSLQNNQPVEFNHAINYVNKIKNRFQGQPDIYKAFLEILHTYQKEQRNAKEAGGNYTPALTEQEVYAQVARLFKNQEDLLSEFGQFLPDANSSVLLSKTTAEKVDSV
Excerpt: as §1, §2, §3

[3] = molecular target: T3, HDHD3 (Homo sapiens, UniProt Q9BSH5); conditions: HDHD3 K15, KR mutant; 10 μM probe, 1 h
T3 construct: Flag; expressed in transfected cells; host or cells: HEK 293T
T3 sequence (Q9BSH5 1-251): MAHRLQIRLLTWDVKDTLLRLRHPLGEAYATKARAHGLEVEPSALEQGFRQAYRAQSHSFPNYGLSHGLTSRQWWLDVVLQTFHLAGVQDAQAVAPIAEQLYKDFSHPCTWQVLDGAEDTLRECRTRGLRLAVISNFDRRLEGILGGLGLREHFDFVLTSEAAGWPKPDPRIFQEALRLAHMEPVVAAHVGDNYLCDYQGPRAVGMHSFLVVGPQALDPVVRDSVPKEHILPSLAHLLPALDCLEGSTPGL
Excerpt: as §1, §2, §3

Row | SMILES | labeling of WT vs mutant protein by probe [1] | labeling of WT vs mutant protein by probe [2] | labeling of WT vs mutant protein by probe [3]
1 | C#CCCC(=O)Oc1c(F)c(F)c(F)c(F)c1F [probe 6, Pentafluorophenyl 4-pentynoate] | ND (the WT did not label more than the mutant (<2x difference quantified)) | HD (the WT labeled more than the mutant (>4x difference quantified)) | HD (the WT labeled more than the mutant (>4x difference quantified))
2 | C#Cc1ccc(C(=O)Oc2c(F)c(F)c(F)c(F)c2F)cc1 [probe 13, Pentafluorophenyl 4-ethynylbenzoate] | ND (the WT did not label more than the mutant (<2x difference quantified)) | HD (the WT labeled more than the mutant (>4x difference quantified)) | HD (the WT labeled more than the mutant (>4x difference quantified))
3 | Cc1cc(C)n2c1C=C1C=CC(CCC(=O)Oc3c(F)c(F)c(S(=O)(=O)[O-])c(F)c3F)=[N+]1[B-]2(F)F.[Na+] [probe 18, reference compound] | HD (the WT labeled more than the mutant (>4x difference quantified)) | HD (the WT labeled more than the mutant (>4x difference quantified)) | HD (the WT labeled more than the mutant (>4x difference quantified))
4 | C#Cc1ccc(C(=O)Oc2ccccc2[N+](=O)[O-])cc1 [probe 10, 2-Nitrophenyl 4-ethynylbenzoate] | ND (the WT did not label more than the mutant (<2x difference quantified)) | HD (the WT labeled more than the mutant (>4x difference quantified)) | HD (the WT labeled more than the mutant (>4x difference quantified))
5 | C#Cc1ccc(C(=O)Oc2c(F)c(F)cc(F)c2F)cc1 [probe 12, 2,3,5,6-Tetrafluorophenyl 4-ethynylbenzoate] | ND (the WT did not label more than the mutant (<2x difference quantified)) | HD (the WT labeled more than the mutant (>4x difference quantified)) | HD (the WT labeled more than the mutant (>4x difference quantified))
6 | C#CCCC(=O)Oc1c(F)c(F)c(S(=O)(=O)[O-])c(F)c1F.[Na+] [probe 1, reference compound] | HD (the WT labeled more than the mutant (>4x difference quantified)) | PD (the WT labeled more than the mutant (>2x difference quantified)) | HD (the WT labeled more than the mutant (>4x difference quantified))
